Results reported in patent US20210100247A1, “HARMFUL ORGANISM CONTROL METHOD AND HARMFUL ORGANISM CONTROL COMPOSITION” (priority 2018, published 2021).
Where “and” joins values, the source holds several entries; their conditions need not be identical. Identical values can stand only once.

System: Tetranychus urticae
Experiment: whole plant or invertebrate
Conditions: for Corrected Adult Insect Mortality Rate Measured Value: adults, 3 days after spraying; for Effectiveness Measured Value: next generation survivors, 10 days after spraying
Experimental: Effecacy Confirmation Test on Tetranychus urticae
Eight or ten adult female Tetranychus urticae mites were inoculated on the kidney bean leaves placed in petri dishes on the day before treating with the chemical solutions.
A flowable agent containing the compound A was diluted with a solution obtained by diluting Rabiden 3S 5,000 times in water to prepare a chemical solution A containing the compound A in which the concentration of the compound A is twice the concentration shown in Tables 1 to 4.
A preparation product containing the compound B was diluted with a solution obtained by diluting Rabiden 3S 5,000 times in water to prepare a chemical solution B containing the compound B in which the concentration of the compound B is twice the concentration shown in Tables 1 to 4.
Test number a: Tebufenpyrad: Pyranica EW (manufactured by Nippon Soda Co., Ltd.) Test numbers b and h: Hexythiazox: Nissolan wettable powder (manufactured by Nippon Soda Co., Ltd.) Test number c: Fenpyroximate: Danitron flowable (manufactured by Nippon Pesticides Co., Ltd.) Test number d: Propargite: Omite wettable powder (manufactured by Nippon Pesticides Co., Ltd.) Test number e: Tolfenpyrad: Hachi-Hachi flowable (manufactured by OAT Agrio) Test number f: Abamectin: Agrimec (manufactured by Syngenta Japan) Test number g: Etoxazole: Baroque flowable (manufactured by Kyoyu Agri co., Ltd.) Test number i: Thiodicarb: Lavin wettable powder 75 (manufactured by Bayer Crop Science) Test number j: Spinosad: Spinoace granule wettable powder (Kumiai Chemical Industry Co., Ltd.) Test number k: Isoxathion: Carphos emulsion (manufactured by Nippon Soda Co., Ltd.) Test number l: Acetamiprid: Mospilan water-soluble agent (manufactured by Nippon Soda Co., Ltd.) Test number m: Fipronil: Prince flowable (manufactured by BASF) Test number n: Tralomethrin: Scout flowable agent (manufactured by Nippon Soda Co., Ltd.) Test number o: BT agent (live spore of Bacillus thuringiensis and crystal toxin produced): Zentari granule wettable powder (manufactured by Kitako Chemical Industry Co., Ltd.) Test number p: Buprofezin: Applaud flowable (manufactured by Nippon Pesticides Co., Ltd.) Test number q: Cyromazine: Triggered liquid (manufactured by Syngenta Japan) Test number r: Tebufenozide: Romdan Flowable (manufactured by Nippon Soda Co., Ltd.) Test number s: Flubendiamide: Phoenix granule wettable powder (Nippon Agricultural Co., Ltd.) Test number t: Pyridalyl: pleo flowable (manufactured by Kyoto Agri) Test number u: Lufenuron: Match emulsion (manufactured by Syngenta Japan) Test number v: Flonicamid: Ulala DF (made by Ishihara Bioscience) Test number w: Chlorfenapyr: Kotetsu Flowable (Nippon Pesticides Co., Ltd.) Test number x: Indoxacarb: Tornado flowable (made by Kumiai Chemical Industry Co., Ltd.) Test number y: Diafenthiuron: Gamba wettable powder (manufactured by Syngenta Japan) Test number z: Thiocyclam: Ebisect wettable powder (manufactured by Mitsui Chemicals Agro) Test number aa: Emamectin-benzoate: Affirm emulsion (Syndienta Japan) Test number ab: Pyridaben: Sanmite wettable powder (manufactured by Nissan Chemical Co., Ltd.)
A mixed solution obtained by mixing equal amounts of the chemical solution A and the chemical solution B was sprayed onto a petri dish containing kidney bean leaves inoculated with Tetranychus urticae mites at an amount of 2 mg per cm^2 using a rotary spray tower (AB mixed-component area).
The chemical solution A and the chemical solution B were each diluted 2-fold with a solution obtained by diluting Labiden 3S 5000 times in water to obtain a chemical solution A′ and a chemical solution B′.
The chemical solution A′ was sprayed onto another petri dish containing kidney bean leaves inoculated with Tetranychus urticae mites at an amount of 2 mg per cm^2 using a rotary spray tower (A single-component area).

[1] = Tetranychus urticae, in Phaseolus vulgaris, 240 h, read-out: Effectiveness Measured Value

## abamectin
Single component 0.017 ppm
  Corrected Adult Insect Mortality Rate Measured Value: 0%
  Effectiveness Measured Value: 11%

## Nc1nc(N)nc(NC2CC2)n1 [cyromazine]
[1]
  pest or weed control at 87 µg/mL: 8%

## N#Cc1nn(-c2c(Cl)cc(C(F)(F)F)cc2Cl)c(N)c1[S+]([O-])C(F)(F)F (stereo not drawn) [fipronil]
[1]
  pest or weed control at 22 µg/mL: 2%

## O=C(NC(=O)c1c(F)cccc1F)Nc1cc(Cl)c(OC(F)(F)C(F)C(F)(F)F)cc1Cl (stereo not drawn) [lufenuron]
[1]
  pest or weed control at 100 µg/mL: 14%

## CC(C)N1C(=O)N(c2ccccc2)CS/C1=N\C(C)(C)C [buprofezin]
[1]
  pest or weed control at 200 µg/mL: 17%

## FC(F)(F)c1ccc(OCCCOc2c(Cl)cc(OCC=C(Cl)Cl)cc2Cl)nc1 [pyridalyl]
[1]
  pest or weed control at 100 µg/mL: 11%

## C[C@@H]1[C@@H](c2ccc(Cl)cc2)SC(=O)N1C(=O)NC1CCCCC1 [hexythiazox]
[1]
  pest or weed control at 1.6 µg/mL: 42%
  pest or weed control at 12.5 µg/mL: 90%

## CCOP(=S)(OCC)Oc1cc(-c2ccccc2)on1 [isoxathion]
[1]
  pest or weed control at 500 µg/mL: 50%

## CS/C(C)=N\OC(=O)N(C)SN(C)C(=O)O/N=C(\C)SC [thiodicarb]
[1]
  pest or weed control at 750 µg/mL: 0%

## CC(C)c1cc(Oc2ccccc2)cc(C(C)C)c1NC(=S)NC(C)(C)C [diafenthiuron]
[1]
  pest or weed control at 25 µg/mL: 7%

## CC(C)(C)c1ccc(CSc2cnn(C(C)(C)C)c(=O)c2Cl)cc1 [pyridaben]
[1]
  pest or weed control at 200 µg/mL: 0%

## CCCOc1cc(C(F)(F)F)ccc1O[C@H]1C[C@H]2CCC[C@@H](C1)N2Oc1ccc(C(F)(F)F)cn1 [acynonapyr, 3-endo-[2-propoxy-4-(trifluoromethyl)phenoxy]-9-[5-(trifluoromethyl)-2-pyridyloxy]-9-azabicyclo[3.3.1] nonan]
Single component 2.0 ppm
  Effectiveness Measured Value: 49% and 51% and 60% and 68% and 46%

## CN(C)C1CSSSC1 [thiocyclam]
[1]
  pest or weed control at 500 µg/mL: 18%

## CCc1ccc(C(=O)NN(C(=O)c2cc(C)cc(C)c2)C(C)(C)C)cc1 [tebufenozide]
[1]
  pest or weed control at 200 µg/mL: 10%

## CCc1nn(C)c(C(=O)NCc2ccc(Oc3ccc(C)cc3)cc2)c1Cl [tolfenpyrad]
[1]
  pest or weed control at 150 µg/mL: 4%

## CCc1nn(C)c(C(=O)NCc2ccc(C(C)(C)C)cc2)c1Cl [tebufenpyrad]
[1]
  pest or weed control at 100 µg/mL: 64%

## N#CCNC(=O)c1cnccc1C(F)(F)F [flonicamid]
Single component 100 ppm
  Corrected Adult Insect Mortality Rate Measured Value: 0%
  Effectiveness Measured Value: 3%

## CCOc1cc(C(C)(C)C)ccc1C1COC(c2c(F)cccc2F)=N1 (stereo not drawn) [etoxazole]
[1]
  pest or weed control at 1.6 µg/mL: 85%

## emamectin-benzoate
Single component 0.02 ppm
  Corrected Adult Insect Mortality Rate Measured Value: 40%
  Effectiveness Measured Value: 17%

## CCOCn1c(-c2ccc(Cl)cc2)c(C#N)c(Br)c1C(F)(F)F [chlorfenapyr]
[1]
  pest or weed control at 50 µg/mL: 46%

## C/C(=N\C#N)N(C)Cc1ccc(Cl)nc1 [acetamiprid]
[1]
  pest or weed control at 100 µg/mL: 7%

## COC(=O)N(C(=O)N1CO[C@@]2(C(=O)OC)Cc3cc(Cl)ccc3C2=N1)c1ccc(OC(F)(F)F)cc1 [indoxacarb]
Single component 50 ppm
  Corrected Adult Insect Mortality Rate Measured Value: 0%
  Effectiveness Measured Value: 0%

## CC1(C)[C@H](C(=O)O[C@H](C#N)c2cccc(Oc3ccccc3)c2)[C@@H]1C(Br)C(Br)(Br)Br (stereo partly drawn) [tralomethrin]
[1]
  pest or weed control at 9.3 µg/mL: 1%

## C#CCOS(=O)OC1CCCCC1Oc1ccc(C(C)(C)C)cc1 (stereo not drawn) [propargite]
[1]
  pest or weed control at 40 µg/mL: 18%

## Cc1cc(C(F)(C(F)(F)F)C(F)(F)F)ccc1NC(=O)c1cccc(I)c1C(=O)NC(C)(C)CS(C)(=O)=O [flubendiamide]
[1]
  pest or weed control at 100 µg/mL: 3%

## spinosad
Single component 40 ppm
  Corrected Adult Insect Mortality Rate Measured Value: 0%
  Effectiveness Measured Value: 0%

## Cc1nn(C)c(Oc2ccccc2)c1C=NOCc1ccc(C(=O)OC(C)(C)C)cc1 [fenpyroximate]
[1]
  pest or weed control at 50 µg/mL: 28%
